Laboratory results taken from publication PMC6550521, “Stress-Induced Changes in the Lipid Microenvironment of β-(1,3)-D-Glucan Synthase Cause Clinically Important Echinocandin Resistance in Aspergillus fumigatus” (mBio, 2019).

Legend:
[1] = test system: fks1 expression in RG101; assay: fks1 expression by RT-PCR; type: cell-based, Aspergillus fumigatus; details: RG101, 16 h in YPD, CAS 1 and 4 μg/ml
Method: Supplementary file : FIG S1 fks1 expression levels in RG101 under uninduced and CAS-induced conditions. RG101 conidia were grown for 16 h in YPD in the absence and presence of CAS (1 and 4 μg/ml), and expression levels of fks1 were compared using reverse transcription-PCR (RT-PCR). […] Download FIG S1, DOCX file, 0.02 MB.

[2] = test system: A. fumigatus RG101; assay: Acute pulmonary aspergillosis model in neutropenic DBA/2 mice, lung fungal burden by qPCR; type: in vivo, Aspergillus fumigatus
Method: Resistance of RG101 to CAS in vivo was tested in an acute pulmonary aspergillosis model. Thirty inbred DBA/2 mice were rendered neutropenic and infected with 1 × 10^6 RG101 conidia intratracheally. The mice were then treated with CAS (5 mg/kg of body weight), MFG (5 mg/kg), or vehicle daily for 5 days, and lung burdens were determined using quantitative PCR (qPCR). Details of the experiment are provided in Text S1 in the supplemental material.
All animal experiments performed were approved by the Rutgers University Institutional Animal Care and Use Committee. Thirty female DBA/2 mice [The Jackson Laboratory, Bar Harbor, ME] were used in the experiment. The mice were housed in cages equipped with HEPA filters and were allowed free access to food and water. To establish neutropenia, mice were immunosuppressed with cyclophosphamide on days -4 (150 mg/kg), -1 and +2 (100 mg/kg) intraperitoneally (ip) and hydrocortisone on day -1 (200 mg/kg) via subcutaneous injection (sc). The animals were given prophylaxis sc ceftazidime (50 mg/kg) on all days to prevent secondary bacterial infections. A. fumigatus RG101 was streaked out from a frozen glycerol stock and cultured on Potato dextrose agar (PDA) slant for 2 days. The spores were harvested in phosphate-buffered saline (PBS) with 0.05% (v/v) Tween 20 and counted in a hemocytometer. The mice were briefly anesthetized IP Ketamine (65 mg/kg)/Xylazine (5 mg/kg) and infected with 1×10^6 spores of RG101 in 25 µL volume via intratracheal instillation. The 30 RG101 infected mice were randomized into following treatment arms for IP treatment: vehicle, CAS (5 mg/kg), and MFG (5 mg/kg). The first treatment was given at 3 h post infection (PI) and continued daily treatments were administered. On day 5 PI, mice were humanely euthanized via CO2 narcosis. Lungs were excised and homogenized in 1 ml of sterile PBS using a 2 ml tube containing ceramic spheres by MP Biomedicals (116913500). Tissue was then homogenized in 20 s bursts in a mini bead beater (MP FastPrep-24) followed by cooling on ice. DNA was then isolated from an aliquot of the lung homogenate (100 μl) using the QIAamp DNA Mini Kit by Qiagen (51304) and analyzed by real-time quantitative PCR (qPCR) using primers specific for A. fumigatus 18S rRNA genes (Wiederhold et al 2004).

[3] = molecular target: β-(1,3)-D-glucan synthase of RG101 (Aspergillus fumigatus, UniProt Q4WLT4); assay: Glucan synthase kinetic inhibition assay, enzyme from RG101; type: biochemical
Method: ATCC 13073 or RG101 was grown in liquid YPD medium at 37°C for 16 h. Partially purified glucan synthase was isolated by the product entrapment method, as previously described ([21]). Sensitivity to echinocandin drugs was measured by glucan synthase assay, using a 96-well multiscreen high-throughput screen filtration system (Millipore Corporation, Bedford, MA) in a final volume of 100 μl. Inhibition of the enzyme by the drug was analyzed after incubation of the enzyme with a radioactive substrate over a broad range of concentrations (0 to 10,000 ng/ml) of echinocandins for 1 h at room temperature. Radioactivity from the enzyme product, β-(1,3)-D-glucan, was measured. Inhibition profiles were determined using a sigmoidal response curve fitting algorithm with GraphPad Prism software (v 7.04).
To study the effect of lipids on the enzyme, dihydrosphingosine, phytosphingosine, or phytoceramide C2 (Sigma-Aldrich D6783, P2795, and C8105, respectively) was added directly to the assay mixture and coincubated with an echinocandin for 1 h at room temperature.

[4] = molecular target: β-(1,3)-D-glucan synthase of clinical isolate 32458 (Aspergillus fumigatus, UniProt Q4WLT4); assay: Glucan synthase kinetic inhibition assay, enzyme from clinical isolate 32458; type: biochemical; details: enzyme from isolate 32458 grown at 4 μg/ml CAS
[5] = test system: Aspergillus fumigatus clinical isolate 68284B; assay: Antifungal susceptibility testing (MEC, CLSI M38-A2); type: cell-based; details: fks1 WT
Method: (§1) Minimum effective concentrations (MECs) for A. fumigatus strains were determined according to CLSI document M38-A2 ([48]) and defined as the lowest drug concentration that led to the growth of small, rounded, compact hyphal forms compared to the hyphal growth seen in the drug-free growth control wells. The following drugs (supplier) were tested: caspofungin (Merck & Co., Inc.), micafungin (Astellas Pharma US, Inc.), anidulafungin (Pfizer Inc.), itraconazole (Sigma-Aldrich), voriconazole (Pfizer Inc.), and amphotericin B (Sigma-Aldrich). In addition, rezafungin and ibrexafungerp were obtained from Cidara Therapeutics and Scynexis Inc., respectively.

[6] = test system: Aspergillus fumigatus clinical isolate 32458; assay: as above; type: cell-based; details: clinical isolate 32458, fks1 WT
Method: as §1

[7] = test system: Aspergillus fumigatus clinical isolate 32315; assay: as above; type: cell-based; details: clinical isolate 32315, fks1 WT
Method: as §1

[8] = test system: Aspergillus fumigatus clinical isolate 117; assay: as above; type: cell-based; details: clinical isolate 117, fks1 WT
Method: as §1

[9] = test system: Aspergillus fumigatus clinical isolate 2770; assay: as above; type: cell-based; details: clinical isolate 2770, fks1 WT
Method: as §1

[10] = test system: reactive oxygen species (ROS) in A. fumigatus RG101; assay: ROS production, DCFDA fluorescence assay; type: cell-based, Aspergillus fumigatus; details: 1 μg/ml, 1 h exposure, DCFDA, compared with other echinocandins
Method: (§2) ROS production in mycelia was measured using a protocol previously described by Blatzer et al. ([51]) with a few changes. Suspensions of 10^4 spores/ml of ATCC 13073 and RG101 were grown in static culture in complete supplement mixture (CSM) medium for 16 h in a 96-well microplate at 37°C. After incubation, the mycelia were washed once with CSM, 10 μM 2′,7′–dichlorofluorescin diacetate (DCFDA) dye was added, and cells were incubated in the dark at 37°C for 30 min. Cells were then washed three times with phosphate-buffered saline (PBS), and a final concentration of 1 μg/ml of each echinocandin in CSM medium was added to different wells. Fluorescence intensity (excitation at 485 nm and emission at 530 nm) was measured for 1 h in a microplate reader (Tecan Infinite M200 Pro). Mycelia stained with DCFDA without any drug were used as a control.

[11] = test system: reactive oxygen species (ROS) in A. fumigatus ATCC 13073; assay: ROS production, DCFDA fluorescence assay; type: cell-based, Aspergillus fumigatus; details: 1 μg/ml, 1 h exposure, compared with other echinocandins
Method: as §2

β-(1,3)-D-glucan synthase of RG101, sequence (Q4WLT4 1-1904): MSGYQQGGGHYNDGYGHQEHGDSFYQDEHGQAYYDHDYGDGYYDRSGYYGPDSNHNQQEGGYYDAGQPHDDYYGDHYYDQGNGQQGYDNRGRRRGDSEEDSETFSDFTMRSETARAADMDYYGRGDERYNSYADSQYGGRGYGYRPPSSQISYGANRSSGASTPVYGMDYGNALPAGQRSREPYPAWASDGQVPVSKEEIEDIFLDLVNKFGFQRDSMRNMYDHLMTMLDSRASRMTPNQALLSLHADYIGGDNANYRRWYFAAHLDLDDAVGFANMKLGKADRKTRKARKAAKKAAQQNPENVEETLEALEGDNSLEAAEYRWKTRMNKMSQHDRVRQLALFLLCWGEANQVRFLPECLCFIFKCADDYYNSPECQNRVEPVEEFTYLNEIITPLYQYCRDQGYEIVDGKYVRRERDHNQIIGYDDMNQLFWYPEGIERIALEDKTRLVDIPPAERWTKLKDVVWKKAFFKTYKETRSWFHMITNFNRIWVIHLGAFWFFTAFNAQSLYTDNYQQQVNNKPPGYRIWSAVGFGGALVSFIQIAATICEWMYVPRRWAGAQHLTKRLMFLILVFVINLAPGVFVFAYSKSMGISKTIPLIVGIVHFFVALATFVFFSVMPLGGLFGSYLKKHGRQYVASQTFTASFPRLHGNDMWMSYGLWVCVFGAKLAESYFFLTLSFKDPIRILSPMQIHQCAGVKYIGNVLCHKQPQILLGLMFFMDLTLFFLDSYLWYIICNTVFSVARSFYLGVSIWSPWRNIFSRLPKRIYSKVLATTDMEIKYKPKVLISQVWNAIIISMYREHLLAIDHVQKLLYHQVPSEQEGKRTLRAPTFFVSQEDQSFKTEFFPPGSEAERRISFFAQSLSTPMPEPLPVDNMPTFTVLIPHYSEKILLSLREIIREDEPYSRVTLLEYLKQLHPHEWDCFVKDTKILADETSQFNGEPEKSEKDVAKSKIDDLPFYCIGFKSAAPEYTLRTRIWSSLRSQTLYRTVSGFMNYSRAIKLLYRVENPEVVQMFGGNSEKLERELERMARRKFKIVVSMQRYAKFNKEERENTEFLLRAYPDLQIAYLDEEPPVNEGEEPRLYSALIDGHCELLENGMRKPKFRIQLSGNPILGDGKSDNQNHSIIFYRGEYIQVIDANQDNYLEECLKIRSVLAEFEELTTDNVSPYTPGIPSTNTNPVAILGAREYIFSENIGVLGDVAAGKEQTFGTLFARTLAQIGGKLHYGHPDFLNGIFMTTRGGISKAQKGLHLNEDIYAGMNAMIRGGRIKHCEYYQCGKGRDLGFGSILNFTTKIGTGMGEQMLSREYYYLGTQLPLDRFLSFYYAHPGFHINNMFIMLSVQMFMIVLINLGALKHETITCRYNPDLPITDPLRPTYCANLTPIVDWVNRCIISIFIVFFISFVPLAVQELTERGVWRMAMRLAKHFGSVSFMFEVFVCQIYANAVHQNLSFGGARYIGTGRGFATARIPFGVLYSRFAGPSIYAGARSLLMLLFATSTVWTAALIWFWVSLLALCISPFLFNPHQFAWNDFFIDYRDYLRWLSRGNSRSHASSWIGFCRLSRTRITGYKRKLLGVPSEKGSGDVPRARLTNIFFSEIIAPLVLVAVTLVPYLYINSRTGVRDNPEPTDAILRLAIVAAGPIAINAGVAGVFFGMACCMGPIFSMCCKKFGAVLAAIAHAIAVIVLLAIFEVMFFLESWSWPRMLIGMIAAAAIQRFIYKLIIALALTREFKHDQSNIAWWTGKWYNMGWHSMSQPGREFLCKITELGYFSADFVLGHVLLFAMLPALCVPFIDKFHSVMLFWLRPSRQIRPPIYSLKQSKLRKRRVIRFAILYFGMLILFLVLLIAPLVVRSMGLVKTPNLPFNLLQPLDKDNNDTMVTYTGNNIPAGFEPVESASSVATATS
β-(1,3)-D-glucan synthase of clinical isolate 32458, sequence (Q4WLT4 1-1904): as above

CC[C@H](C)C[C@H](C)CCCCCCCCC(=O)N[C@H]1C[C@@H](O)[C@@H](NCCN)NC(=O)[C@@H]2[C@@H](O)CCN2C(=O)[C@H]([C@H](O)CCN)NC(=O)[C@H]([C@H](O)[C@@H](O)c2ccc(O)cc2)NC(=O)[C@@H]2C[C@@H](O)CN2C(=O)[C@H]([C@@H](C)O)NC1=O [CAS, caspofungin]
fks1 expression levels, CAS-induced vs uninduced [1]: No significant differences | Decrease in lung burden versus vehicle-treated group ([2]; RG101, 5 mg/kg daily for 5 days): No significant differences | Average fungal lung burden ([2]; RG101 intratracheal, 5 mg/kg daily IP for 5 days, qPCR): 22.6 ng fungal DNA per lung | Loss of sensitivity (IC50 shift) of glucan synthase from RG101 grown with CAS versus without ([3]; RG101 grown in presence vs absence of CAS): 4 log orders | IC50 ([3]; enzyme from RG101 grown at 4 μg/ml CAS): > 9.15 µM | IC50 [4]: ~4.57 µM | MEC (minimum effective concentration) [5]: 4 µg/mL | MEC (minimum effective concentration) [6]: 16 µg/mL | MEC (minimum effective concentration) [7]: 16 µg/mL | MEC (minimum effective concentration) [8]: 16 µg/mL | MEC (minimum effective concentration) [9]: 16 µg/mL | ROS levels induced in RG101 [10]: highest levels | ROS levels induced in ATCC 13073 [11]: highest levels
